Measurements: patent publication US10517920B2, “Antibacterial peptide and method of treatment using the antibacterial peptide” (United Arab Emirates University, priority 2011, dated 2019)
Where no end group is shown, it is not given here.

Test system: Gram-positive and Gram-negative bacteria
Assay: In vitro disc diffusion of identified amino acid sequences
Type: cell-based
Experimental: Each amino acid sequence identified in each of samples 1, sample 2 and sample 3, were checked for antibacterial activity using the invitro disc diffusion method of Murray P R et al; 1995 (Murray P R, Baron E J, Pfaller M A, Tenover F C, Yolke R H. (1995). Manual of Clinical Microbiology, ASM, Washington, D.C. 6th edition.)
The amino acid sequences were also compared to an Ampicillin standard of 10 μg/mL

| Sequence | Antibacterial activity of amino acid sequences | Antibacterial activity compared with the standard drug ampicillin |
| --- | --- | --- |
| RQWISRWTWQR [SEQ ID NO:6, antibacterial peptide from the <10 kDa fraction of date pits degraded by solid state degradation] | maximum anti-bacterial activity | comparable to the standard drug ampicillin |
| KRGRLIWRVWRGIW [SEQ ID NO: 4, antibacterial peptide from the <10 kDa fraction of date pits degraded by solid state degradation] | maximum anti-bacterial activity | comparable to the standard drug ampicillin |
